Source: ChEMBL document CHEMBL1201861, “Genomics of Drug Sensitity in Cancer screening data, Wellcome Trust Sanger Institute”

Experiments:
KARPAS-422 = assay: cells; type: functional, cell-based; details: Homo sapiens
Description: SANGER: Inhibition of human KARPAS-422 cell growth in a cell viability assay.

LB996-RCC = assay: cells; type: functional, cell-based; details: Homo sapiens
Description: SANGER: Inhibition of human LB996-RCC cell growth in a cell viability assay.

COLO-678 = assay: cells; type: functional, cell-based; details: Homo sapiens
Description: SANGER: Inhibition of human COLO-678 cell growth in a cell viability assay.

HT-1376 = assay: cells; type: functional, cell-based; details: Homo sapiens
Description: SANGER: Inhibition of human HT-1376 cell growth in a cell viability assay.

KYSE-410 = assay: cells; type: functional, cell-based; details: Homo sapiens;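 further: growth inhibition of KYSE-410 cells, measured through a cell viability readout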
Description: SANGER: Inhibition of human KYSE-410 cell growth in a cell viability assay.

SW626 = assay: cells; type: functional, cell-based; details: Homo sapiens;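 further: growth inhibition of SW626 cells, measured with a cell viability assay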
Description: SANGER: Inhibition of human SW626 cell growth in a cell viability assay.

HEC-1 = assay: cells; type: functional, cell-based; details: Homo sapiens;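 further: growth inhibition of the cell line, read out with a cell viability assay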
Description: SANGER: Inhibition of human HEC-1 cell growth in a cell viability assay.

639-V = assay: cells; type: functional, cell-based; details: Homo sapiens;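 further: growth inhibition of 639-V cells, read out with a cell viability assay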
Description: SANGER: Inhibition of human 639-V cell growth in a cell viability assay.

5637 = assay: cells; type: functional, cell-based; details: Homo sapiens
Description: SANGER: Inhibition of human 5637 cell growth in a cell viability assay.

CESS = assay: SANGER: Inhibition of human CESS cell growth in a cell viability assay.; type: functional, cell-based
PC-14 = assay: cells; type: functional, cell-based; details: Homo sapiens;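 further: cell viability assay measuring inhibition of PC-14 cell growth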
Description: SANGER: Inhibition of human PC-14 cell growth in a cell viability assay.

SAS = assay: cells; type: functional, cell-based; details: Homo sapiens;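 further: growth inhibition of SAS cells, read out with a cell viability assay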
Description: SANGER: Inhibition of human SAS cell growth in a cell viability assay.

LP-1 = assay: cells; type: functional, cell-based; details: Homo sapiens;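 further: growth inhibition of human LP-1 cells, with the read-out taken from a cell viability assay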
Description: SANGER: Inhibition of human LP-1 cell growth in a cell viability assay.

CAL-12T = assay: cells; type: functional, cell-based, Homo sapiens; details: Homo sapiens, CAL-12T;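 further: growth inhibition of human CAL-12T cells, read out with a cell viability assay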
Description: SANGER: Inhibition of human CAL-12T cell growth in a cell viability assay.

NCI-H661 = assay: cells; type: functional, cell-based; details: Homo sapiens;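 further: cell viability assay read-out, IC50 being the concentration that inhibits growth of the cells by half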
Description: SANGER: Inhibition of human NCI-H661 cell growth in a cell viability assay.

LN-405 = assay: cells; type: functional, cell-based; details: Homo sapiens
Description: SANGER: Inhibition of human LN-405 cell growth in a cell viability assay.

HCC1569 = assay: cells; type: functional, cell-based; details: Homo sapiens;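 further: growth inhibition of human HCC1569 cells, read out with a cell viability assay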
Description: SANGER: Inhibition of human HCC1569 cell growth in a cell viability assay.

MCF7 = assay: cells; type: functional, cell-based; details: Homo sapiens;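 further: growth inhibition of human MCF7 cells, read out with a cell viability assay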
Description: SANGER: Inhibition of human MCF7 cell growth in a cell viability assay.

HSC-3 = assay: cells; type: functional, cell-based; details: Homo sapiens
Description: SANGER: Inhibition of human HSC-3 cell growth in a cell viability assay.

LK-2 = assay: cells; type: functional, cell-based; details: Homo sapiens;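 further: growth inhibition of LK-2 cells, read out with a viability assay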
Description: SANGER: Inhibition of human LK-2 cell growth in a cell viability assay.

COR-L23 = assay: cells; type: functional, cell-based; details: Homo sapiens;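 further: cell viability assay measuring how strongly compounds suppress growth of COR-L23 cells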
Description: SANGER: Inhibition of human COR-L23 cell growth in a cell viability assay.

M14 = assay: cells; type: functional, cell-based; details: Homo sapiens;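 further: growth inhibition of M14 cells, read out with a cell viability assay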
Description: SANGER: Inhibition of human M14 cell growth in a cell viability assay.

JEG-3 = assay: cells; type: functional, cell-based; details: Homo sapiens;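 further: growth inhibition of human JEG-3 cells, read out with a cell viability assay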
Description: SANGER: Inhibition of human JEG-3 cell growth in a cell viability assay.

KYSE-520 cell line = assay: cells; type: functional, cell-based; details: Homo sapiens;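 further: growth inhibition of human KYSE-520 cells, read out with a viability assay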
Description: SANGER: Inhibition of human KYSE-520 cell growth in a cell viability assay.

SW1990 = assay: cells; type: functional, cell-based; details: Homo sapiens
Description: SANGER: Inhibition of human SW1990 cell growth in a cell viability assay.

CA46 = assay: cells; type: functional, cell-based; details: Homo sapiens;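 further: growth inhibition of human CA46 cells, read out by a cell viability assay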
Description: SANGER: Inhibition of human CA46 cell growth in a cell viability assay.

CAMA-1 = assay: cells; type: functional, cell-based; details: Homo sapiens;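 further: growth inhibition of CAMA-1 cells, read out with a cell viability assay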
Description: SANGER: Inhibition of human CAMA-1 cell growth in a cell viability assay.

647-V = assay: cells; type: functional, cell-based; details: Homo sapiens;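 further: growth inhibition of 647-V cells, read out with a cell viability assay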
Description: SANGER: Inhibition of human 647-V cell growth in a cell viability assay.

NCI-H719 = assay: cells; type: functional, cell-based; details: Homo sapiens;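 further: growth inhibition of the cultured cell line, read out with a viability assay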
Description: SANGER: Inhibition of human NCI-H719 cell growth in a cell viability assay.

PA-1 = assay: cells; type: functional, cell-based; details: Homo sapiens;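 further: IC50 for suppression of PA-1 cell proliferation, determined with a cell viability read-out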
Description: SANGER: Inhibition of human PA-1 cell growth in a cell viability assay.

IGROV-1 = assay: cells; type: functional, cell-based; details: Homo sapiens;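 further: reduction of IGROV-1 cell growth, read out with a viability assay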
Description: SANGER: Inhibition of human IGROV-1 cell growth in a cell viability assay.

CHP-126 = assay: cells; type: functional, cell-based; details: Homo sapiens
Description: SANGER: Inhibition of human CHP-126 cell growth in a cell viability assay.

RPMI-2650 = assay: cells; type: functional, cell-based; details: Homo sapiens
Description: SANGER: Inhibition of human RPMI-2650 cell growth in a cell viability assay.

ACHN = assay: cells; type: functional, cell-based; details: Homo sapiens;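 further: cell viability read-out used to gauge how strongly growth of human ACHN cells is suppressed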
Description: SANGER: Inhibition of human ACHN cell growth in a cell viability assay.

PANC-03-27 = assay: cells; type: functional, cell-based; details: Homo sapiens
Description: SANGER: Inhibition of human PANC-03-27 cell growth in a cell viability assay.

SCC-4 = assay: cells; type: functional, cell-based; details: Homo sapiens;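 further: growth inhibition of human SCC-4 cells, read out as cell viability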
Description: SANGER: Inhibition of human SCC-4 cell growth in a cell viability assay.

LU-99A = assay: cells; type: functional, cell-based; details: Homo sapiens;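 further: growth inhibition of LU-99A cells, read out with a cell viability assay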
Description: SANGER: Inhibition of human LU-99A cell growth in a cell viability assay.

OPM-2 = assay: cells; type: functional, cell-based; details: Homo sapiens;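 further: growth of OPM-2 cells measured with a viability assay, IC50 for suppression of proliferation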
Description: SANGER: Inhibition of human OPM-2 cell growth in a cell viability assay.

BL-70 = assay: SANGER: Inhibition of human BL-70 cell growth in a cell viability assay.; type: functional, cell-based
NCI-H2342 = assay: cells; type: functional, cell-based; details: Homo sapiens;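 further: growth inhibition of the cancer cell line, determined with a cell viability assay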
Description: SANGER: Inhibition of human NCI-H2342 cell growth in a cell viability assay.

NCI-H28 = assay: cells; type: functional, cell-based; details: Homo sapiens;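 further: growth inhibition of human NCI-H28 cells, read out as cell viability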
Description: SANGER: Inhibition of human NCI-H28 cell growth in a cell viability assay.

NCI-H1437 = assay: cells; type: functional, cell-based; details: Homo sapiens;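 further: growth inhibition of human NCI-H1437 cells, read out by a cell viability assay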
Description: SANGER: Inhibition of human NCI-H1437 cell growth in a cell viability assay.

OVCAR-3 = assay: cells; type: functional, cell-based; details: Homo sapiens;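 further: growth inhibition of human OVCAR-3 cells, determined by a cell viability assay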
Description: SANGER: Inhibition of human OVCAR-3 cell growth in a cell viability assay.

PC-3 = assay: cells; type: functional, cell-based; details: Homo sapiens;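 further: cell viability assay measuring growth inhibition of PC-3 cells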
Description: SANGER: Inhibition of human PC-3 cell growth in a cell viability assay.

COLO-680N = assay: cells; type: functional, cell-based; details: Homo sapiens;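 further: cell viability assay used to measure inhibition of COLO-680N cell growth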
Description: SANGER: Inhibition of human COLO-680N cell growth in a cell viability assay.

MKN-28 = assay: cells; type: functional, cell-based; details: Homo sapiens;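 further: cell viability assay read-out, IC50 reflects suppression of growth of human MKN-28 cells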
Description: SANGER: Inhibition of human MKN28 cell growth in a cell viability assay.

NCI-H441 = assay: cells; type: functional, cell-based; details: Homo sapiens;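 further: growth inhibition of NCI-H441 cells, read out with a cell viability assay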
Description: SANGER: Inhibition of human NCI-H441 cell growth in a cell viability assay.

S-117 = assay: cells; type: functional, cell-based; details: Homo sapiens
Description: SANGER: Inhibition of human S-117 cell growth in a cell viability assay.

SK-MEL3 = assay: cells; type: functional, cell-based, SK-MEL-3; details: Homo sapiens;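 further: growth inhibition of human SK-MEL-3 cells, read out with a cell viability assay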
Description: SANGER: Inhibition of human SK-MEL-3 cell growth in a cell viability assay.

G-402 = assay: cells; type: functional, cell-based; details: Homo sapiens
Description: SANGER: Inhibition of human G-402 cell growth in a cell viability assay.

BC1 cell line = assay: SANGER: Inhibition of human BC-1 cell growth in a cell viability assay.; type: functional, cell-based
SK-LU-1 = assay: cells; type: functional, cell-based; details: Homo sapiens;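 further: cell viability assay measuring growth inhibition of human SK-LU-1 cells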
Description: SANGER: Inhibition of human SK-LU-1 cell growth in a cell viability assay.

GP5d = assay: cells; type: functional, cell-based; details: Homo sapiens;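 further: growth inhibition of human GP5d cells, read out with a cell viability assay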
Description: SANGER: Inhibition of human GP5d cell growth in a cell viability assay.

RL = assay: cells; type: functional, cell-based; details: Homo sapiens
Description: SANGER: Inhibition of human RL cell growth in a cell viability assay.

8505C = assay: cells; type: functional, cell-based; details: Homo sapiens
Description: SANGER: Inhibition of human 8505C cell growth in a cell viability assay.

SW780 = assay: cells; type: functional, cell-based; details: Homo sapiens;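 further: growth inhibition of the cells, read out with a cell viability assay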
Description: SANGER: Inhibition of human SW780 cell growth in a cell viability assay.

SK-MEL-28 = assay: cells; type: functional, cell-based; details: Homo sapiens;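 further: growth inhibition of human SK-MEL-28 cells, read out with a cell viability assay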
Description: SANGER: Inhibition of human SK-MEL-28 cell growth in a cell viability assay.

CHL-1 = assay: cells; type: functional, cell-based; details: Homo sapiens;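 further: cell growth inhibition, read out with a cell viability assay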
Description: SANGER: Inhibition of human CHL-1 cell growth in a cell viability assay.

NCI-H1694 = assay: cells; type: functional, cell-based; details: Homo sapiens;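 further: cell viability assay measuring inhibition of growth in human NCI-H1694 cells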
Description: SANGER: Inhibition of human NCI-H1694 cell growth in a cell viability assay.

DMS-153 = assay: cells; type: functional, cell-based; details: Homo sapiens
Description: SANGER: Inhibition of human DMS-153 cell growth in a cell viability assay.

SAOS-2 = assay: cells; type: functional, cell-based; details: Homo sapiens;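 further: growth inhibition of human Saos-2 cells determined by a cell viability assay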
Description: SANGER: Inhibition of human Saos-2 cell growth in a cell viability assay.

A-375 = assay: cells; type: functional, cell-based; details: Homo sapiens;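 further: growth inhibition of A375 cells, read out with a cell viability assay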
Description: SANGER: Inhibition of human A375 cell growth in a cell viability assay.

IMR-5 = assay: cells; type: functional, cell-based; details: Homo sapiens;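 further: growth inhibition of human IMR-5 cells, read out with a cell viability assay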
Description: SANGER: Inhibition of human IMR-5 cell growth in a cell viability assay.

Measured: IC50

CC(O)(CS(=O)(=O)c1ccc(F)cc1)C(=O)Nc1ccc(C#N)c(C(F)(F)F)c1 (stereo not drawn) [BICALUTAMIDE]
> 1020 nM: all assays above
